From US6444819B1, “Benzylpiperazinyl and piperidinyl ethanone derivatives: dopamine receptor subtype specific ligands” (Neurogen Corporation, priority 1998, dated 2002) come the findings set out here.

The target of this assay is T1, human D4 receptors (Homo sapiens, UniProt P21917).
T1 construct: expressed in transfected cells; host or cells: CHO cells
T1 sequence (P21917 1-419): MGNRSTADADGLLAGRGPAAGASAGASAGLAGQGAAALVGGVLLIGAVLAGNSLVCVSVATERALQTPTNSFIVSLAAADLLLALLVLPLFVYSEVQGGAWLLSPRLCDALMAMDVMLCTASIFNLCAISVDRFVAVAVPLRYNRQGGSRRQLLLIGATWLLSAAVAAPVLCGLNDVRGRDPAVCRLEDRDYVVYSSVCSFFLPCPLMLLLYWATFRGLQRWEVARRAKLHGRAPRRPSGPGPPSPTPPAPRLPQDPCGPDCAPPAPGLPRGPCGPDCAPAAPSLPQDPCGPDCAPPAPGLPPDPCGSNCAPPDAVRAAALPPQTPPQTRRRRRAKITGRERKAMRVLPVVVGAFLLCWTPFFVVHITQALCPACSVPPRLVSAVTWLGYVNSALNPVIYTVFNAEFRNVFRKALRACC
The assay can be described thus: D4 receptor binding assay (3H-YM 09151-2 displacement). The note with it: CHO cell membranes with cloned human D4 receptor; 0.5 nM 3H-YM 09151-2.

Method: The cloned membranes are homogenized in 100 volumes (wt/vol) of 0.05 M Tris-HCl buffer at 4° C. and pH 7.4 containing 120 mM NaCl, 1 mM EDTA and 5 mM MgCl2. The samples were centrifuged at 48,000×g then re-suspended and re-homogenized. The final tissue sample is kept frozen until use. The tissue is resuspended 1:20 (wt/vol) in 0.05 M Tris-HCl buffer containing 120 mM NaCl prior to use.
Non-specific binding is defined as that binding found in the presence of 1 mM spiperone; without further additions, nonspecific binding is less than 20% of total binding.

The term Ki denotes a dissociation constant, usually derived from enzyme kinetics or from competition with a known ligand. A high value points to weaker binding. In turn, `CCCCN(C(=O)CN1CCN(Cc2ccc(Cl)cc2)CC1)c1ccccc1` [Compound 2, N-butyl-2-(4-(4-chlorobenzyl)piperazinyl)-N-phenylethanamide] came in with a Ki of 154 nM.
